Data taken from PubChem BioAssay AID2305 (GlaxoSmithKline (GSK), 2010).

Test system: P. falciparum 3D7 growth, pLDH absorbance
Assay: blood-stage malaria parasite growth potency – strain 3D7, dose response (AID 2305)

O=C(Cc1cnc[nH]1)Nc1ccc(-c2cccc(-c3nc4ccc(C(F)(F)F)cc4[nH]3)c2)cc1 gave an IC50 of 740 nM.

Compound Fc1ccc2nc(-c3ccc(-c4ccc(CNCCc5ccncc5)cc4)cc3)[nH]c2c1 has an IC50 of 140 nM.

CCNc1cc(C(=O)N[C@@H](Cc2ccccc2)[C@H](O)CNCCC(C)c2ccccc2)cc(N2CCCC2=O)c1 (stereo partly specified) showed an IC50 of 510 nM.

With O=C(/C=C/c1cccc(Cl)c1)N1CCC(C(O)CN2CCC3(CC2)CN(C(=O)/C=C/c2cccc(Cl)c2)c2ccccc23)CC1 (stereo unspecified) the IC50 was 890 nM.

For O=C(Nc1ccc(OC2CCN(Cc3ccc(F)cc3)C2)c(Cl)c1)c1cccs1 (stereo unspecified), the IC50 was 130 nM.

With CC1CN(Cc2ccccc2)CCN1c1ccc(NC(=O)c2cccs2)cc1 (stereo unspecified) the IC50 was 280 nM.

COc1ccc(CC(C)NCC(O)c2cccc(C(F)(F)F)c2)cc1 (stereo unspecified) gave an IC50 of 1580 nM.

Work on COc1ccc(CCNCCCCCCNCCc2ccccc2Cl)cc1OC yielded an IC50 of 660 nM.

COc1ccc2ncc(F)c(CCN3CCC(CNC(=O)C(=O)c4c[nH]c5ccccc45)CC3)c2n1 showed an IC50 of 390 nM.

For Cc1ccc(/C=C/C(=O)NCCCCCN2CCC(c3c[nH]c4ccccc34)CC2)cc1, the IC50 was 1010 nM.

Cc1cc(Cl)c(Cl)cc1NC(=O)Nc1cccc(C(F)(F)F)c1 gave an IC50 of 870 nM.

With O=C(NC1CCC(CN2CCC(c3c[nH]c4ccccc34)CC2)CC1)c1cc2ccccc2s1 (stereo unspecified) the IC50 was 730 nM.

Compound CC(C)N1CCC(N(Cc2ccc(-c3ccc(C(F)(F)F)cc3)cc2)C(=O)Cn2c(SCc3cccc(F)c3F)nc(=O)c3ccccc32)CC1 has an IC50 of 1050 nM.

Compound Cc1cccc2[nH]c(-c3ccc(-c4cccc(CN5CCC(C(N)=O)CC5)c4)cc3)nc12 has an IC50 of 1770 nM.

In the case of O=C(/C=C/c1ccc(Cl)c(Cl)c1)NCCCCCN1CCC(C(=O)Nc2cccc(Cl)c2)CC1, the IC50 is reported as 680 nM.

Cc1cccn2c(=O)c3cc(C(=O)NC(C)c4ccccc4)c(=N)n(CCN4CCOCC4)c3nc12 (stereo unspecified) showed an IC50 of 820 nM.

CCc1ccc(NC(=O)N(CCCn2ccnc2)Cc2csc(-c3ccc(CNCc4ccccc4)cc3)n2)cc1 gave an IC50 of 760 nM.

For CS(=O)(=O)c1ccccc1CNC(=O)c1ccc(-c2ccc(-c3nc4ccc(C(F)(F)F)cc4[nH]3)s2)cc1, the IC50 was 240 nM.

O=c1cc(NCCCNCc2cccc(Oc3ccccc3)c2)[nH]c2ccccc12 gave an IC50 of 950 nM.

Cc1cnc(CN(Cc2ccc(-c3ccc(CNCCc4ccc(S(C)(=O)=O)cc4)cn3)cc2)C(=O)c2ccc([N+](=O)[O-])c(C)c2)cn1 showed an IC50 of 920 nM.

In the case of CCOc1cc(NCCCNc2ncc([N+](=O)[O-])cc2C)nc2ccccc12, the IC50 is reported as 690 nM.

Compound C=C(C)Cn1cc(C2CCN(CCN3CCC(CNC(=O)c4ccc(-c5ccc(C#N)cc5)cc4)CC3)CC2)c2ccccc21 has an IC50 of 430 nM.

Oc1cccc(-c2nc(-c3ccccc3)c(-c3ccc4oc5ccc(-c6[nH]c(-c7cccc(O)c7)nc6-c6ccccc6)cc5c4c3)[nH]2)c1 showed an IC50 of 790 nM.

Compound Cc1ccccc1CNc1noc(-c2c(-c3ccccc3)noc2C)n1 has an IC50 of 900 nM.

O=C(NCc1ccccc1)O[C@@H]1CNCC[C@H]1c1ccc(C(O)Cc2ccccc2)cc1 (stereo partly specified) gave an IC50 of 580 nM.

FC(F)(F)c1cnc(Sc2nnc(-c3ccncc3)o2)c(Cl)c1 gave an IC50 of 270 nM.

Compound O=C(c1ccc2ccccc2n1)N1CCCc2cc(Br)ccc21 has an IC50 of 860 nM.

Cn1cccc1C(=O)C(=O)Nc1ccc(-c2ccc(-c3nc4ccc(F)cc4[nH]3)cc2)cc1 gave an IC50 of 840 nM.

COc1cc(-c2nc3c4ccccc4c4ccccc4c3[nH]2)cc(OC)c1OC showed an IC50 of 850 nM.

In the case of COc1ccc(NC(=O)NC2CCN(c3ccnc4cc(Cl)ccc34)C2)cc1 (stereo unspecified), the IC50 is reported as 100 nM.

O=C(/C=C/c1cc(F)cc(C(F)(F)F)c1)N1CCC(CN2CCC(c3c[nH]c4ccccc34)CC2)CC1 showed an IC50 of 760 nM.

Compound CCN(CC)Cc1cc(NC(=O)c2ccccc2O)ccc1Oc1ccc(Cl)cc1 has an IC50 of 830 nM.

Work on Cc1cc(-c2cccc(CNC3CCCC3)c2)ccc1S(=O)(=O)NCCN1CCCC1 yielded an IC50 of 1240 nM.

For Cc1c(-c2cccc(C(C)(C)NCCCN3CCCCC3)c2)cnc(N)c1C, the IC50 was 940 nM.

Compound Cc1cc(N(C)C2CCN(CC3CCCCC3)C2)nc(Nc2ccc(Br)cc2)n1 (stereo unspecified) has an IC50 of 700 nM.

CC(C)n1ncc2c(C(=O)Nc3ccc(C#N)c(Cl)c3)cc(C3CC3)nc21 showed an IC50 of 960 nM.

In the case of CC1CN(Cc2ccc(C#N)cc2)CCN1c1ccc(NC(=O)c2cccs2)cc1 (stereo unspecified), the IC50 is reported as 810 nM.

With O=C(Nc1ccc(Cl)cc1)OCCn1nnnc1C(c1ccc(Cl)cc1)N1CCOCC1 (stereo unspecified) the IC50 was 1180 nM.

CCOc1cc(C)ccc1C1CCN(CCCCNC(=O)c2ccc(NC(=O)c3cc(Cl)cc(Cl)c3)cc2)CC1 was tested, and the IC50 was 360 nM.

Work on O=C(Cc1cccc(Cl)c1)Nc1cccc(-c2c[nH]c3nc(Nc4cccc(OCc5ccccc5)c4)ncc23)c1 yielded an IC50 of 1040 nM.

For N#Cc1ccc(N2CCN(Cc3cccc(-c4ccc(-c5nc6ccc(C(F)(F)F)cc6[nH]5)cc4)c3)CC2)nc1, the IC50 was 700 nM.

Cc1noc(C)c1-c1cccc(CNCc2cccc(-c3ccc(-c4nc5ccc(C(F)(F)F)cc5[nH]4)s3)c2)c1 gave an IC50 of 170 nM.

Work on Cc1cc(NC(=O)c2cccs2)ccc1OC1CCN(Cc2ccc(C#N)cc2)C1 (stereo unspecified) yielded an IC50 of 850 nM.

Work on CCCC(C(=O)OCCNC)(c1ccccc1)c1ccccc1 yielded an IC50 of 890 nM.

Nc1ccc(-c2ccc(NC(=O)Nc3ccccc3)cc2)cn1 showed an IC50 of 920 nM.

Compound Cc1[nH]nc2ccc(-c3cc(OC[C@@H](N)Cc4ccccc4)cnc3-c3cc4ccccc4s3)cc12 has an IC50 of 810 nM.

With Cc1cccc(CC2CC(=O)N(c3ccc([N+](=O)[O-])cc3)C2=O)c1 (stereo unspecified) the IC50 was 200 nM.

For COc1ccc2nccc([C@@H](O)CN3CCC(NCc4ccc5nnsc5c4)CC3)c2c1, the IC50 was 710 nM.

O=C(Nc1ccc(-c2cccc(-c3nc4ccccc4[nH]3)c2)cc1)Nc1ccsc1 gave an IC50 of 250 nM.

COc1ccc2ncc(C)c(CCN3CCC(NCc4ccc5c(n4)NC(=O)CS5)CC3)c2c1 showed an IC50 of 550 nM.

For Cc1cc(-c2ccnc(Nc3cccc(C#N)c3)n2)cc(C)c1O, the IC50 was 920 nM.

CNCCc1c(O)ccc2ccccc12 gave an IC50 of 800 nM.

In the case of Cc1nn(-c2cccc(Cl)c2)c2c1C(C(=O)c1ccc3c(c1)OCO3)CC(=O)N2 (stereo unspecified), the IC50 is reported as 370 nM.

With CCc1cn2c3c(cc(C(=O)N[C@@H](Cc4ccccc4)[C@H](O)CNCC(C)C)cc13)N(C)S(=O)(=O)CC2 the IC50 was 40 nM.

In the case of CCOc1ccc(C2CCN(CCCCNC(=O)c3ccc(NC(=O)c4ccc(Cl)cc4)cc3)CC2)c(OCC)c1, the IC50 is reported as 680 nM.

Compound COc1cc(CC(C)NCC(O)c2cccc(C(F)(F)F)c2)ccc1OCc1ccccc1 (stereo unspecified) has an IC50 of 820 nM.

For Cc1ccc2nc(C)cc(NN=Cc3ccc(Cl)cc3)c2c1, the IC50 was 990 nM.

For COc1ccc(C=C2SC(=N)N(c3ccccc3OC)C2=O)cc1, the IC50 was 300 nM.

Work on Oc1ccc(CCNc2nc(NCc3cccc(-c4cc(C(F)(F)F)ccc4Cl)c3)nc(N3CCNCC3)n2)cc1 yielded an IC50 of 1780 nM.

Work on COc1ccc2nccc([C@@H](O)CN3CCC(NC(=O)c4ccc(-c5ccccc5)s4)CC3)c2c1 yielded an IC50 of 310 nM.

With CC(C)(C)c1nn(-c2ccccc2)c2[nH]c(=O)c(CNC3CCCCC3)cc12 the IC50 was 1250 nM.

Compound CC(=O)Nc1ccc(OCCN(Cc2ccccc2OC(F)(F)F)c2ccc(C(F)(F)F)c(C#N)c2)c(Cl)c1 has an IC50 of 460 nM.

In the case of COc1ccc2nccc([C@@H](O)CN3CCC(NC(=O)c4cccc(-c5cc(C)no5)c4)CC3)c2c1, the IC50 is reported as 340 nM.

For COc1ccc2nccc([C@@H](O)CN3CCC(NCc4cc5c(Cl)cc(Cl)cc5[nH]4)CC3)c2c1, the IC50 was 60 nM.

For CN1CCN(Cc2ccc(-c3ccc4c(Nc5ccc(Oc6ccccn6)cc5)ccnc4c3)o2)CC1, the IC50 was 140 nM.

With Cc1ccnc(NC(c2cccc(Cl)c2Cl)c2ccc3cccnc3c2O)c1 (stereo unspecified) the IC50 was 1000 nM.

With Cc1cccc(-c2nn(-c3ccccc3)c3[nH]c(=O)c(CN4CCSCC4)cc23)c1 the IC50 was 1010 nM.

For OC1CCCN(Cc2cccc(-c3ccc(-c4nc5ccc(C(F)(F)F)cc5[nH]4)cc3)c2)C1 (stereo unspecified), the IC50 was 690 nM.

Cc1ccc(-n2c(=O)c3cccnc3n2CC(=O)Nc2cccc(C)c2C)cc1 was tested, and the IC50 was 860 nM.

Compound CN1CCN(c2ccc(Nc3nccc(-c4cnn5ncccc45)n3)cc2Cl)CC1 has an IC50 of 830 nM.

With O=C(Nc1ccc2nc(-c3ccc4nc(NC(=O)C5CCCCC5)sc4c3)[nH]c2c1)C1CCCCC1 the IC50 was 610 nM.

COc1ccc2nccc([C@@H](O)CN3CCC(NC(=O)c4cccc(C(=O)c5ccccc5)c4)CC3)c2c1 showed an IC50 of 690 nM.

c1ccc(Oc2ccc(Nc3nncc4ccccc34)cc2)cc1 showed an IC50 of 690 nM.

Cn1cnc(CCNC(=O)c2ccc(-c3cccc(-c4nc5ccc(C(F)(F)F)cc5[nH]4)c3)cc2)c1 gave an IC50 of 730 nM.

Work on O=C(Nc1ccc(Cl)cc1)c1ccc(CN2CCCN(CC3CCCCC3)CC2)cc1 yielded an IC50 of 220 nM.

Work on NC(N)=NC(=O)Nc1cc(Cl)c(F)c(Cl)c1 yielded an IC50 of 640 nM.

In the case of Fc1ccc2cc(C=Cc3ccncc3)[nH]c2c1, the IC50 is reported as 620 nM.

For O=C(Cc1cn(-c2ccccc2)nc1-c1ccc(Cl)cc1)Nc1nccs1, the IC50 was 1200 nM.

In the case of CCOC(=O)c1ccc(NC(=O)N(Cc2ccc(-c3ccc(CN4CCNCC4)cc3)cc2)Cc2cccnc2)cc1, the IC50 is reported as 930 nM.

For COc1ccc2ccccc2c1CCCCN1CCN(CC(c2ccc(F)cc2)N2CCN(C(C)C)CC2)CC1 (stereo unspecified), the IC50 was 810 nM.

For Cc1cc(S(=O)(=O)N2CCCCC(c3ccc(C(F)(F)F)cc3)=N2)c(Cl)cc1Cl, the IC50 was 500 nM.

CC(C)C[C@H](Nc1ccnc(NCC2CCCCC2)n1)C(=O)Nc1ccccc1 gave an IC50 of 1430 nM.

With O=C(Nc1cccc(Cl)c1Cl)Nc1ccnc2ccccc12 the IC50 was 750 nM.

Work on CC1CCCN(c2ccc(NC(=O)c3cccs3)cc2[N+](=O)[O-])C1 (stereo unspecified) yielded an IC50 of 670 nM.

Compound CCCCCCCN(Cc1ccc(OC(C)(C)C(=O)OCC)cc1)C(=O)Cc1ccc(F)cc1F has an IC50 of 1030 nM.

NC1CCCN(Cc2ccc(-c3ccc(-c4nc5ccccc5[nH]4)s3)cc2)C1 (stereo unspecified) gave an IC50 of 670 nM.

Cc1nn(C)cc1C(C)Nc1nncc(-c2ccc(C(F)(F)F)cc2)n1 (stereo unspecified) showed an IC50 of 250 nM.

Work on CCC(C)NC(=O)Nc1ccc(-c2cccc(-c3nc4ccccc4[nH]3)c2)cc1 (stereo unspecified) yielded an IC50 of 820 nM.

In the case of O=C(NC1CC1)c1ccc(Nc2nccc(-c3c(-c4cccc(NC(=O)c5c(F)cccc5F)c4)nn4ccccc34)n2)cc1, the IC50 is reported as 410 nM.

With CCCNCc1ccc(-c2ccc(CN(CC3CCCO3)C(=O)COc3ccccc3Cl)cc2)nc1 (stereo unspecified) the IC50 was 1180 nM.

O=C(Cn1c(CCc2cccc(F)c2F)cc(=O)c2cccnc21)N(CCCn1ccnc1)Cc1ccc(-c2ccc(C(F)(F)F)cc2)cc1 showed an IC50 of 800 nM.

CC(C)C1=CC(=NOS(=O)(=O)c2ccccc2)C=C(C(C)C)C1=O was tested, and the IC50 was 710 nM.

For O=S(=O)(c1ccccc1)n1ccc2cc(Nc3ncnc4cc(C#C[C@H]5CCCN5)sc34)ccc21, the IC50 was 1070 nM.

For O=C(Nc1ccc(Cl)cc1)c1ccc(CN2CCCN(Cc3ccccc3)CC2)cc1, the IC50 was 750 nM.

CC(C)CCN1CCC(Oc2ccc(NC(=O)c3ccsc3)cc2Cl)CC1 was tested, and the IC50 was 1040 nM.

With COc1ccc2nccc([C@@H](O)CN3CCC(NC(=O)[C@@H]4Cc5ccccc5CN4C(=O)OC(C)(C)C)CC3)c2c1 the IC50 was 890 nM.
